Experimental findings from patent US10344034B2, “Pyrazolopyrimidone or Pyrrolotriazone derivatives, method of preparing same, and pharmaceutical applications thereof” (Shanghai Hengrui Pharmaceutical Co., Ltd., priority 2013, dated 2019) are described below.

In general, IC50 refers to the concentration that inhibits the measured activity by half. The AUC is concentration integrated over time. As usually defined, the MRT is the average time that molecules of a dose stay in the body.

The structures appear in SMILES notation.

One data set addresses human GnRHr (Homo sapiens (Human), UniProt P30968). The data set is described as follows: Human GnRHr (GnRH receptor) activity assay, Fluo-4 calcium signal in Human GnRHr/CHO stably transfected cell lines. Format: cell-based. The note with it: Human GnRHr/CHO cells, GnRH polypeptide stimulant. How it is done: Test Example 1. Human GnRHr (GnRH Receptor) Activity Assay of the Present Compounds.
In vitro GnRHr protein activity was tested by the following methods.
This assay was used to determine the inhibition effect of the present compound on the activity of human GnRHr protein expressed by Human GnRHr/CHO stably transfected cell lines.
A mammalian expression vector containing the human GnRHr gene was transferred into CHO cells by adding Lipofectamine® LTX reagent containing Plus™. Antibiotics were added the next day for screening to pick out the monoclonal cell lines.
The Human GnRHr/CHO stably transfected cell lines were inoculated in 96-well plates with an inoculation density of 25,000 cells/well. The culture medium was removed the next day, and loading buffer containing Fluo-4 dye was added to the plate (100 μL/well) and incubated for 30 minutes at 37° C. The plate was moved to room temperature and equilibrated for 10 minutes. Each compound was diluted with DMSO to seven concentration gradients of 100 μM, 10 μM, 1 μM, 0.1 μM, 0.01 μM, 0.001 μM, 0.0001 μM. Then, 1 μl of each gradient was added to each well and incubated for 10 minutes at room temperature. After automated addition of 50 μL of GnRH polypeptide stimulant solution, the value was immediately detected at 494/516 […] by a microplate reader (flexstation 3). IC50 values of the compounds were calculated by software from different fluorescence signals at various corresponding concentrations.
The inhibitory activity of the present compounds on human GnRHr was determined by the above assay, and IC50 values are shown in Table 1.

Data set [1] in a line: Rat pharmacokinetics assay. The format is in vivo, Sprague-Dawley (SD) rats. The settings on record: both sexes, Sprague-Dawley, plasma, oral 10 mg/kg; for Vd/F: read-out: Apparent volume of distribution Vz/F; for AUC: read-out: Area under curve AUC; for CL/F: read-out: Clearance rate CL/F; for half-life: read-out: Half-life T1/2 (converted); for Cmax: read-out: Plasma concentration Cmax; for MRT: read-out: Residence time MRT. As to the method: Test Example 4. Rat pharmacokinetics assay of the compounds of Example 2, Example 3, Example 5, Example 9, Example 10, Example 11, and Example 13 of the present invention.
Sprague-Dawley (SD) rats were used as test animals. The plasma concentrations at various times were determined by LC/MS/MS after intragastric administration of compounds of Example 2, Example 3, Example 5, Example 9, Example 10, Example 11, and Example 13, and intravenous administration of the compound of Example 11 to the rats. The pharmacokinetic behavior of the present compounds in rats was studied, and the pharmacokinetic features were evaluated.
Thirty-two (32) healthy adult SD rats (half female and half male) were evenly designated into 8 groups (4 for each group). The animals were purchased from Shanghai Super B&K Laboratory Animal Corp. Ltd (laboratory animal production Certificate No. SCXK (HU)2008-0016).
An appropriate amount of sample was weighed, and added with 0.5% CMC-Na to form a 1 mg/ml suspension upon ultrasonic treatment.
Appropriate amounts of drugs were weighed, and dissolved with 0.5 ml DMSO and 0.5 ml of Tween 80. Saline solution was added to the final volume.
Thirty-two (32) SD rats (half female and half male) were evenly designated into 8 groups (4 for each group), and administered by oral gavage or intravenous injection (i.v.) (oral gavage at a dosage of 10 mg/kg or 30 mg/kg, and i.v. at a dosage of 5.0 mg/kg), respectively, at a volume of 10 ml/kg after fasting overnight.
0.1 ml of blood was sampled before, and 0.5, 1, 2, 4, 6, 8, 11, and 24 hours after administration, collected in a heparinized test tube, and centrifuged at 3500 rpm for 10 minutes to separate the plasma, which was stored at −20° C. The animals were allowed access to feed 2 hours after administration.
The content of the test compound in the plasma of rats after administration of the compound by oral gavage was determined by LC/MS/MS.

Sequence of human GnRHr (P30968 whole entry): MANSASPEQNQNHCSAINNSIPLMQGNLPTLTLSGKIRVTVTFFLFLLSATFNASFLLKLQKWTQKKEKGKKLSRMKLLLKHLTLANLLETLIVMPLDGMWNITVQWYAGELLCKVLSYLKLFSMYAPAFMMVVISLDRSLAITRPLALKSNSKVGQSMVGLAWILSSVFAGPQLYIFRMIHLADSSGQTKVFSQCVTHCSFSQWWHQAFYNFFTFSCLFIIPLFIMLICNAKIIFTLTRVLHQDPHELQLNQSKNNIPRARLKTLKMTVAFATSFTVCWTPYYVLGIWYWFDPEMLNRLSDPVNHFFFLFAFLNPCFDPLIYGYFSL

Regarding `CONC(=O)Nc1ccc(-n2nc3c(c2CN(C)C)c(=O)n(-c2cccc(OC)c2F)c(=O)n3Cc2c(F)cccc2F)cc1` [Example 2, 1-(4-(7-(2,6-difluorobenzyl)-3-((dimethylamino)methyl)-5-(2-fluoro-3-methoxyphenyl)-4,6-dioxo-4,5,6,7-tetrahydro-2H-pyrazolo[3,4-d]pyrimidin-2-yl)phenyl)-3-methoxyurea], on human GnRHr, the IC50 turned out to be 1.46 nM. In data set [1], the Vd/F was 14.4 ± 10.5 L/kg, the AUC stood at 1550 ± 650 ng·h/mL, the CL/F came out at 121 ± 44 mL/min/kg and the half-life is 1.24 ± 0.54 h. Further, in data set [1], the Cmax is 746 ± 493 ng/mL and the MRT stood at 2.02 ± 0.67 h.
As for `CCNC(=O)Nc1ccc(-n2nc3c(c2CN(C)C)c(=O)n(-c2cccc(OC)c2F)c(=O)n3Cc2c(F)cccc2F)cc1` [Example 3, 1-(4-(7-(2,6-difluorobenzyl)-3-((dimethylamino)methyl)-5-(2-fluoro-3-methoxyphenyl)-4,6-dioxo-4,5,6,7-tetrahydro-2H-pyrazolo[3,4-d]pyrimidin-2-yl)phenyl)-3-ethylurea], the IC50 at human GnRHr was 0.9 nM. Also, in data set [1], the Vd/F came to 96.2 ± 42.2 L/kg, the area under the curve (AUC) is 1070 ± 472 ng·h/mL, the CL/F worked out at 181 ± 79 mL/min/kg and the half-life was 6.17 ± 0.79 h. In data set [1], the Cmax was determined as 237 ± 158 ng/mL and the MRT turned out to be 6.42 ± 1.39 h.
As to `CNC(=O)Nc1ccc(-n2nc3c(c2CN(C)C)c(=O)n(-c2cccc(OC)c2F)c(=O)n3Cc2c(F)cccc2F)cc1` [Example 5, 1-(4-(7-(2,6-difluorobenzyl)-3-((dimethylamino)methyl)-5-(2-fluoro-3-methoxyphenyl)-4,6-dioxo-4,5,6,7-tetrahydro-2H-pyrazolo[3,4-d]pyrimidin-2-yl)phenyl)-3-methylurea], the IC50 on human GnRHr came out at 0.66 nM. For the same compound, in data set [1], the Vd/F was 46.8 ± 39.2 L/kg, the AUC came out at 1290 ± 1030 ng·h/mL, the CL/F was 247 ± 198 mL/min/kg and the half-life is 2.32 ± 0.65 h. For the same compound, in data set [1], the Cmax is 690 ± 660 ng/mL and the MRT worked out at 2.47 ± 0.75 h.
Consider `CCNC(=O)Nc1ccc(-n2nc3c(c2CN(C)C)c(=O)n(-c2cccc(OC)c2F)c(=O)n3Cc2c(F)cccc2C(F)(F)F)cc1` [Example 6, 1-(4-(3-((dimethylamino)methyl)-5-(2-fluoro-3-methoxyphenyl)-7-(2-fluoro-6-(trifluoromethyl)benzyl)-4,6-dioxo-4,5,6,7-tetrahydro-2H-pyrazolo[3,4-d]pyrimidin-2-yl)phenyl)-3-ethylurea], for which the IC50 on human GnRHr was 0.96 nM.
As to `CONC(=O)Nc1ccc(-n2nc3c(c2CN(C)C)c(=O)n(-c2cccc(OC)c2F)c(=O)n3Cc2c(F)cccc2C(F)(F)F)cc1` [Example 7, 1-(4-(3-((dimethylamino)methyl)-5-(2-fluoro-3-methoxyphenyl)-7-(2-fluoro-6-(trifluoromethyl)benzyl)-4,6-dioxo-4,5,6,7-tetrahydro-2H-pyrazolo[3,4-d]pyrimidin-2-yl)phenyl)-3-methoxyurea], at human GnRHr, the half-inhibitory concentration (IC50) worked out at 0.49 nM.
Take `CCNC(=O)Nc1ccc(-n2nc3c(c2CN(C)C)c(=O)n(-c2ccc(OC)nn2)c(=O)n3Cc2c(F)cccc2F)cc1` [Example 10, 1-(4-(7-(2,6-difluorobenzyl)-3-((dimethylamino)methyl)-5-(6-methoxypyridazin-3-yl)-4,6-dioxo-4,5,6,7-tetrahydro-2H-pyrazolo[3,4-d]pyrimidin-2-yl)phenyl)-3-ethylurea]: on human GnRHr, the IC50 was found to be 0.66 nM. For the same compound, in data set [1], the Vd/F came to 30.3 ± 14.4 L/kg, the AUC came out at 1240 ± 593 ng·h/mL, the CL/F is 168 ± 95 mL/min/kg and the half-life was 2.29 ± 0.84 h. For the same compound, in data set [1], the Cmax stood at 598 ± 431 ng/mL and the MRT came out at 2.96 ± 0.17 h.
Regarding `CNC(=O)Nc1ccc(-n2nc3c(c2CN(C)C)c(=O)n(-c2ccc(OC)nn2)c(=O)n3Cc2c(F)cccc2C(F)(F)F)cc1` [Example 12, 1-(4-(3-((dimethylamino)methyl)-7-(2-fluoro-6-(trifluoromethyl)benzyl)-5-(6-methoxypyridazin-3-yl)-4,6-dioxo-4,5,6,7-tetrahydro-2H-pyrazolo[3,4-d]pyrimidin-2-yl)phenyl)-3-methylurea], on human GnRHr, the IC50 is 2.24 nM.
As for `CCNC(=O)Nc1ccc(-c2cn3c(c2CN(C)C)c(=O)n(-c2cccc(OC)c2F)c(=O)n3Cc2c(F)cccc2F)cc1` [Example 13, 1-(4-(1-(2,6-difluorobenzyl)-5-((dimethylamino)methyl)-3-(2-fluoro-3-methoxyphenyl)-2,4-dioxo-1,2,3,4-tetrahydropyrrolo[2,1-f][1,2,4]triazin-6-yl)phenyl)-3-ethylurea], the IC50 at human GnRHr is 0.92 nM. In addition, in data set [1], the Vd/F turned out to be 231 ± 234 L/kg, the area under the curve (AUC) came out at 389 ± 298 ng·h/mL, the CL/F came out at 915 ± 1050 mL/min/kg and the half-life is 3.31 ± 0.57 h. For the same compound, in data set [1], the Cmax worked out at 103 ± 64 ng/mL and the mean residence time (MRT) was determined as 4.48 ± 0.7 h.
In the case of `CNC(=O)Nc1ccc(-c2cn3c(c2CN(C)C)c(=O)n(-c2cccc(OC)c2F)c(=O)n3Cc2c(F)cccc2F)cc1` [Example 14, 1-(4-(1-(2,6-difluorobenzyl)-5-((dimethylamino)methyl)-3-(2-fluoro-3-methoxyphenyl)-2,4-dioxo-1,2,3,4-tetrahydropyrrolo[2,1-f][1,2,4]triazin-6-yl)phenyl)-3-methylurea], the IC50 on human GnRHr was found to be 0.11 nM.
Same read-out and setting: to `CONC(=O)Nc1ccc(-c2cn3c(c2CN(C)C)c(=O)n(-c2cccc(OC)c2F)c(=O)n3Cc2c(F)cccc2F)cc1` [Example 15, 1-(4-(1-(2,6-difluorobenzyl)-5-((dimethylamino)methyl)-3-(2-fluoro-3-methoxyphenyl)-2,4-dioxo-1,2,3,4-tetrahydropyrrolo[2,1-f][1,2,4]triazin-6-yl)phenyl)-3-methoxyurea] belongs 0.43 nM; to `CNC(=O)Nc1ccc(-c2cn3c(c2CN(C)C)c(=O)n(-c2ccc(OC)nn2)c(=O)n3Cc2c(F)cccc2F)cc1` [Example 16, 1-(4-(1-(2,6-difluorobenzyl)-5-((dimethylamino)methyl)-3-(6-methoxypyridazin-3-yl)-2,4-dioxo-1,2,3,4-tetrahydropyrrolo[2,1-f][1,2,4]triazin-6-yl)phenyl)-3-methylurea], 2.32 nM.
